The values that follow come from patent US20110159603A1, “FLUORESCENT PROBE SPECIFIC TO HYDROGEN PEROXIDE” (THE UNIVERSITY OF TOKYO, priority 2008, published 2011).

SMILES strings stand for the structures.

Assay [1] is described as follows: Relative fluorescence intensity at 520 nm on adding other reactive oxygen species. To be noted: hydroxyl radical 10 μM, peroxynitrite 10 μM, hypochlorite ion 10 μM, NOC13 100 μM or EP-1 100 μM; compound 1 μM; excitation 490 nm. The protocol:
(§1) The addition of hydroxyl radical (10 μM) to the test system was performed by the method of adding hydrogen peroxide (10 μM) to a solution of Compound 5, and then immediately adding a solution of iron(II) perchlorate (10 μM) in purified water to the mixture to generate hydroxyl radicals by the Fenton reaction.

The nature of assay [2]: Fluorescence spectrum change on adding hydrogen peroxide. To be noted: excitation 490 nm. The protocol:
[The source words this procedure for another target and reports this target under the same test.] as §1

A short description of assay [3]: Relative fluorescence intensity with superoxide from hypoxanthine/xanthine oxidase (HPX/x.o.) system. As to conditions: compound 10 μM.
The subject of assay [4] is RAW264.7 cells. Briefly: Detection of hydrogen peroxide in live cells by fluorescence microscopy. It counts as cell-based. As to conditions: RAW264.7 cells stimulated with LPS 50 μg/ml and IFN-γ 100 unit/ml for 12 hours vs non-stimulated; observed 2 hours after loading; excitation 470 to 495 nm, fluorescence 510 to 550 nm. The protocol:
It was confirmed that Compound 5 was also usable for detection of hydrogen peroxide in live cells. The RAW264.7 cells were stimulated with a lipopolysaccharide (LPS, 50 μg/ml) and interferon-γ (IFN-γ, 100 unit/ml) for 12 hours, then a diacetylated compound of Compound 5 was loaded on the cells, and 2 hours later, the cells were observed under a fluorescence microscope using the U-MNIBA2 filter set produced by Olympus Corporation (excitation wavelength: 470 to 495 nm, fluorescence wavelength: 510 to 550 nm) (FIG. 2).

With `N#Cc1ccc(C(=O)C(=O)c2ccc(-c3c4ccc(=O)cc-4oc4cc(O)ccc34)c(C(=O)O)c2)cc1` [Compound 5, 5-(4-cyanobenzoyl)carbonylfluorescein], the “relative fluorescence intensity at 520 nm” value is listed as “no increase of fluorescence intensity” in assay [1]; “increase of fluorescence intensity was observed only when hydrogen peroxide was added” in assay [2] (hydrogen peroxide 100 μM for 30 minutes, compound 1 μM); “no significant change in the degree of the increase of fluorescence intensity” in assay [3] (HPX/x.o. system with SOD 60 Unit/L added); “reduced to around the level of the control” in assay [3] (HPX/x.o. system with catalase 100 Unit/L added); “higher in the case using the HPX/x.o. system than in the case of the control” in assay [3] (superoxide 10 μM, HPX/x.o. system (x.o. 2.38 mUnit/L, HPX 10 μM), versus control). Moreover, the “change of the fluorescence spectrum over time” value in assay [2] (hydrogen peroxide 100 μM added to compound 1 μM, after 5, 15, 30 and 60 minutes) is listed as “increase of fluorescence intensity was observed over time”. In addition, the “fluorescence intensity in cells” value in assay [4] is recorded as “higher when loading Compound 5 on the stimulated cells (B) than on the non-stimulated cells (A)”.
